Assay results reported in ChEMBL document CHEMBL5604062, “ASAP - ZIKV NS2B-NS3 protease fluorescence dose response” (2024).
Where “and” joins values, the source holds several entries; their conditions need not be identical. Equal values may be shown once.

molecular target: Nonstructural protein 3 (Zika virus, UniProt A0A024AXB9); assay: Functional biochemical assay to identify treatments for viral infectious disease that targets Zika NS2B-NS3 protease. Utilizing a direct enzyme activity measurement method, reading the fluorescence intensity is used to characterize the relative potency of inhibitors as IC50.; design: species or system PRVABC59
Sequence (A0A024AXB9 whole entry): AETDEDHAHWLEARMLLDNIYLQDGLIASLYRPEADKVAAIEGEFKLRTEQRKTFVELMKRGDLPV

| SMILES | IC50 |
| --- | --- |
| NCc1cn(CCNC(=O)c2cc(Cl)cc(NC(=O)OCc3ccccc3)c2)nn1 | > 99.5 µM |
| O=C(Nc1ccc2c(c1)CNC2)c1n[nH]c2ncc(Br)cc12 | 46.1 µM |
| NCc1cccc(NC(=O)[C@H](NC(=O)C2CCCCC2)c2ccc(OCc3ccccc3)cc2)c1 | 22.3 µM and 20 µM |
| NCc1cccc(NC(=O)CN(C(=O)OCc2ccccc2)c2ccc(OCc3ccccc3)cc2)c1 | 14.5 µM |
| Cn1ccnc1S(=O)(=O)N[C@@H](C(=O)Nc1cccc(CN)c1)c1ccc(OCc2ccccc2)cc1 | > 99.5 µM |
| O=C(O)c1cc(Cl)ccc1NS(=O)(=O)c1ccc(-c2cn[nH]c2)cc1 | > 99.5 µM |
| O=C(Nc1cc(Cl)cc(C(=O)Nc2ccc3c(c2)CNC3)c1)OCc1ccccc1 | < 2.49 µM and 0.175 µM and 0.19 µM |
| O=C(O)c1cc(Cl)ccc1NS(=O)(=O)c1ccc(OCc2cncnc2)cc1 | > 99.5 µM |
| N#Cc1cc(Cl)cc(S(=O)(=O)Nc2cccc(-c3nnn[nH]3)c2)c1 | > 99.5 µM |
| Cc1ccc(F)c(-c2ccc([C@@H](NC(=O)OCc3ccccc3)C(=O)Nc3cccc(CN)c3)cc2)c1 | 6.81 µM |
| O=C1NCc2c1cccc2C(=O)Nc1ccc2c(c1)CNC2 | 6.43 µM |
| Brc1cnc(Sc2ncc[nH]2)nc1 | > 99.5 µM |
| CCNC(=O)Nc1cc(Cl)cc(C(=O)Nc2cccc(-c3nn[nH]n3)c2)c1 | > 99.5 µM |
| O=C(Nc1cc(Cl)cc([C@H]2[C@H](CO)[C@@H]2c2cccc(-c3nn[nH]n3)c2)c1)OCc1ccccc1 | 84.1 µM |
| NCc1cccc(NC(=O)c2ccc(OCC(F)(F)F)c(NC(=O)OCc3ccccc3)c2)c1 | 48.7 µM |
| NCc1cccc(NC(=O)c2cc(Cl)cc(F)c2F)c1 | 59.3 µM |
| O=C(c1cc(Cl)ccc1NS(=O)(=O)c1ccc(Oc2ccccc2Cl)cc1)N1CCCC1 | > 99.5 µM |
| N#Cc1cc(-c2ccc3[nH]c(C(=O)O)cc3c2)cc(N2CCCC2)c1 | > 99.5 µM |
| CSc1cc(F)c(C(=O)Nc2cccc(CN)c2)cc1NC(=O)OCc1ccccc1 | 83.6 µM |
| c1nnc(SCCCSc2nncs2)s1 | > 99.5 µM |

| SMILES | IC50 |
| --- | --- |
| CC[C@H](Cc1nn[nH]n1)c1ccc(N[C@H](C(=O)NC)c2cc(Cl)cc(NC(=O)OCc3ccccc3)c2)cc1 | 79.1 µM |
| O=C(O)c1cc(Cl)ccc1S(=O)(=O)Nc1ccc(N2CCCS2(=O)=O)cc1 | > 99.5 µM |
| CC(C)[C@H](NC(=O)[C@@H]1CCCN1C(=O)OCc1ccccc1)P(=O)(Oc1ccc(F)cc1)Oc1ccc(F)cc1 | > 99.5 µM |
| CNC(=O)[C@H](Nc1ccc2c(c1)CNC2)c1cccc2[nH]ncc12 | 3.83 µM |
| CNC(=O)[C@H](Nc1cccc(-c2nn[nH]n2)c1)c1cc(Cl)cc(NC(=O)OCc2ccccc2)c1 | > 99.5 µM |
| CC(C)(C)OC(=O)NCc1ccc(I)c(NC(=O)c2cc(Cl)cc(NC(=O)OCc3ccccc3)c2)c1 | > 99.5 µM |
| O=C(O)c1cc(Cl)c(F)cc1S(=O)(=O)Nc1ccc(Oc2ccccc2Cl)cc1 | 33.5 µM and 34.2 µM |
| N#C[C@H](Nc1ccc(CCC(=O)O)cn1)c1cc(Cl)cc(C2CC2)c1 | > 99.5 µM |
| COc1ccc2nc(C)cc(C(=O)Nc3cccc(CN)c3)c2c1 | > 99.5 µM |
| O=C(NCCC1CC1)[C@H](Nc1ccc2c(c1)CNC2)c1cc(Cl)cc(C2CC2)c1 | 0.074 µM and 0.049 µM |
| COc1ccc(-n2nnnc2SC(F)F)cc1 | > 99.5 µM |
| NCc1cc(Cl)cc(C(=O)Nc2cccc(-c3nn[nH]n3)c2)c1 | > 99.5 µM |
| CCc1cnccc1-c1nc2c(C(=O)Nc3ccc4c(c3)CNC4)cc(Cl)cc2[nH]1 | 0.364 µM |
| O=C(Nc1ccc2c(c1)CNC2)[C@H]1CCCc2[nH]ncc21 | > 25 µM |
| CC(C)NC(=O)[C@H](Nc1ccc2c(c1)CN(CC(F)F)C2)c1cc(Cl)cc2[nH]ncc12 | > 25 µM |
| O=C(c1cc(Cl)cc2[nH]ncc12)N1CCC(C2CCNCC2)CC1 | > 99.5 µM |
| Cc1ccc([C@@H](NC(=O)OCc2ccccc2)C(=O)Nc2cccc(CN)c2)cc1C(F)(F)F | 48.7 µM |
| CN(CCS(N)(=O)=O)C(=O)c1cc(Cl)ccc1NS(=O)(=O)c1ccc(Oc2ccccc2Cl)cc1 | > 99.5 µM |
| C#C[C@H](Nc1cccc(C(=O)O)c1)c1cc(Cl)cc2[nH]ncc12 | > 99.5 µM |
| CC(=Cc1cc(Cl)cc(NC(=O)OCc2ccccc2)c1)c1cccc(CN)c1 | 5.26 µM |

| SMILES | IC50 |
| --- | --- |
| O=C(Nc1ccc2c(c1)CNC2)c1cc(Cl)nc2[nH]ncc12 | 1.54 µM |
| C[C@@H](C(=O)Nc1cccc(CN)c1)c1ccc(OCc2ccccc2)cc1 | > 99.5 µM |
| O=C(Nc1cc(Cl)cc([C@H]2CN(Cc3ccccc3)C[C@@H]2c2cccc(-c3nn[nH]n3)c2)c1)OCc1ccccc1 | 6.87 µM |
| NC1(c2cccc(NC(=O)c3cc(Cl)cc(NC(=O)OCc4ccccc4)c3)c2)CCC1 | > 99.5 µM |
| C=CC[C@H]1NCc2cc(NC(=O)c3cc(F)cc4[nH]ncc34)ccc21 | 0.289 µM |
| COc1ccc(F)cc1-c1ccc(S(=O)(=O)Nc2cc(Cl)cc(C(=O)O)c2)cc1 | > 99.5 µM |
| CC(C)(C)c1ncc(-c2ccc([C@@H](NC(=O)OCc3ccccc3)C(=O)Nc3cccc(CN)c3)cc2)o1 | 36.3 µM |
| Cc1ccc(Sc2ncccc2C(=O)Nc2cccc(CN)c2)cc1C | > 99.5 µM |
| CC(C)(C)NC(=O)[C@H](Nc1ccc2c(c1)CNC2)c1cc(Cl)cc2[nH]ncc12 | 3.12 µM |
| Cc1ncc(-c2ccc([C@@H](NC(=O)OCc3ccccc3)C(=O)Nc3cccc(CN)c3)cc2)s1 | 27.2 µM |
| O=C(Nc1ccc2c(c1)CNC2)c1cc(F)cc(-c2ccnc3c2CCO3)c1 | 1.19 µM |
| O=C1Cc2c(cccc2C(=O)NC2(c3ccc(O)nc3)CC2)N1 | > 25 µM |
| O=C(O)c1cc(Cl)ccc1NS(=O)(=O)c1ccc(-c2ccc(F)cc2)cc1 | 32.9 µM |
| CCOCCCN1Cc2ccc(NC(=O)c3cc(Cl)cc4[nH]ncc34)cc2C1 | 33.1 µM |
| CC(C)c1cc(NC(=O)OCc2ccccc2)cc(C(=O)Nc2cccc(CN)c2)c1 | 20 µM |
| O=C(Nc1cc(Cl)cc(C(=O)Nc2cccc(CO)c2)c1)OCc1ccccc1 | > 99.5 µM |
| O=C(Cn1sc2ccccc2c1=O)Nc1cccc(OCc2cn(CC(=O)Nc3ccccc3Oc3ccccc3)nn2)c1 | 2.06 µM |
| CC(=Cc1cccc(CN)c1)c1cc(Cl)cc(NC(=O)OCc2ccccc2)c1 | 8.13 µM |
| CSc1cc(Cl)cc(C(=O)Nc2cccc(-n3nn[nH]c3=O)c2)c1 | > 99.5 µM |

Next, values leading:

| IC50 | SMILES |
| --- | --- |
| > 25 µM | O=C1Cc2c(cccc2C(=O)NC2CCC3(CC2)COC3)N1 |
| > 99.5 µM | NCc1cccc(NC(=O)[C@@H](NS(=O)(=O)C[C@H]2CCCCO2)c2ccc(OCc3ccccc3)cc2)c1 |
| > 99.5 µM | c1ccc2sc(C3CCN(Cc4n[nH]c5c4CCCC5)CC3)nc2c1 |
| 13.3 µM | Cn1cc(-c2cc(CN)cc([C@@H]3C[C@H]3c3cc(Cl)cc(NC(=O)OCc4ccccc4)c3)c2)cn1 |
| > 99.5 µM | CCc1onc(C2CCOCC2)c1C(=O)Nc1cccc(CN)c1 |
| > 99.5 µM | NCc1cccc(NC(=O)[C@H]2c3ccccc3CCN2C(=O)OCc2ccccc2)c1 |
| > 99.5 µM | CCn1c(=O)c(N2CC[C@@H](CN3CCCCC3)C2)nc2ccccc21 |
| > 99.5 µM | Cc1cc(N2CCCCC2)ccc1NS(=O)(=O)c1ccc(Cl)cc1C(=O)O |
| > 99.5 µM | CS(=O)(=O)N1CCC([C@@H](NC(=O)OCc2ccccc2)C(=O)Nc2cccc(CN)c2)CC1 |
| > 50.2 µM | O=Cc1ccc(N2CCC(C(=O)NCCC3CCN(Cc4ccccc4)CC3)CC2)cc1 |
| > 99.5 µM | O=c1c2cccn2cnn1Cc1cnc(Cl)s1 |
| > 99.5 µM | O=C(O)c1nc(Cc2c[nH]c3ccc(Cl)cc23)c2ccccn12 |
| 60.6 µM | c1ccc2oc(C3CCN(Cc4c[nH]c5ccccc45)CC3)nc2c1 |
| > 99.5 µM | Cc1c(C(=O)Nc2cc(CN)ccc2F)cc(C2CC2)n1C |
| 92 µM | O=C(Nc1cc(Cl)cc(C(=O)Nc2nc([C@H]3CCCN3)cc(=O)[nH]2)c1)OCc1ccccc1 |
| > 99.5 µM | N[C@@H]1CC[C@H](NC(=O)[C@@H](NC(=O)OCc2ccccc2)c2ccc(OCc3ccccc3)cc2)C1 |
| > 99.5 µM | CCn1c(=O)c(N2C[C@H]3OCCN(C(C)=O)[C@H]3C2)nc2ccccc21 |
| > 25 µM | CC[C@H]1CN(C(=O)Nc2ccc3c(c2)CNC3)C[C@@H]1c1ccc(OC)cc1 |
| > 99.5 µM | CCn1c(=O)c(N2CC[C@@H](Cc3ccncc3)C2)nc2ccccc21 |
| > 99.5 µM | CC(C)[C@@H]1CC[C@@H](C)C[C@H]1C(=O)Nc1cccc(CN)c1 |
| > 99.5 µM | CCn1c(=O)c(N2CC[C@H](CO)C2)nc2ccc(C(=O)OC)cc21 |
| > 99.5 µM | NCc1cccc(NC(=O)[C@@H](NC(=O)OCc2ccccc2)C2CCN(S(=O)(=O)[C@H]3CCOC3)CC2)c1 |

| IC50 | SMILES |
| --- | --- |
| > 99.5 µM | Cc1cc(C=O)c(O)c(C(=O)N2CC[C@H](CN(C)C)C2)c1 |
| > 99.5 µM | CCn1cc(C2=CCCNC2)nc(N2CC[C@@H](CO)C2)c1=O |
| > 99.5 µM | COc1ccc2c(c1)c(C(=O)Nc1cccc(CN)c1)c(C)n2C1CCCC1 |
| > 99.5 µM | CCn1c(=O)c(N2CC[C@H](CO)C2)nc2cc(C(=O)NCc3ccccc3)ccc21 |
| 7.87 µM | NCCc1cccc(NC(=O)[C@H]2[C@H]3CCCCC[C@H]3[C@H]2NC(=O)OCc2ccccc2)c1 |
| 2.89 µM | Cc1[nH]c2ccccc2c1CN1CCC(c2nc3ccccc3s2)CC1 |
| > 99.5 µM | CCn1c(=O)c(N2CCC[C@H]2C(=O)NC2CC2)nc2ccccc21 |
| > 25 µM | COc1ccc([C@@H]2C[C@H]2NC(=O)c2cccc3c2CC(=O)N3)cc1 |
| > 25 µM | O=C(Nc1ccc2c(c1)CNC2)c1ncc(Cc2ccccc2)s1 |
| 20.1 µM | CCCc1sc(C(=O)Nc2ccc3c(c2)CNC3)cc1CC |
| > 99.5 µM | Cn1nc(C2CC2)c2c(C(=O)Nc3cccc(CN)c3)cc(C3CC3)nc21 |
| > 99.5 µM | COC(=O)c1n[nH]cc1CN1CCC(c2nc3ccccc3s2)CC1 |
| > 99.5 µM | CC(C)(C)OC(=O)Cn1ccnc(N2CC[C@@H](CO)C2)c1=O |
| > 99.5 µM | NCc1cccc(NC(=O)[C@H](NC(=O)OCc2ccccc2)C2CCN(CCc3ccccc3)CC2)c1 |
| > 99.5 µM | NCc1cccc(NC(=O)c2cc(NC(=O)OCc3ccccc3)c(=O)n3c2CCCC3)c1 |
| > 99.9 µM | CC(=O)Nc1cccc(CNC(=O)C2CCN(c3ccc(C=O)cc3)CC2)c1 |
| > 99.5 µM | CCn1c(=O)c(N2CC[C@H](N3CCCS3(=O)=O)C2)nc2ccccc21 |
| > 99.5 µM | CCn1cc(-c2ccnc(N(C)C)c2)nc(N2CC[C@@H](CO)C2)c1=O |
| > 99.5 µM | CCn1ccnc(N2CC(=O)[C@@H](c3c[nH]c4ccccc34)C2)c1=O |
| > 99.5 µM | O=c1ccn(Cc2cc(=O)n3ccccc3n2)c2ccsc12 |
| > 99.5 µM | O=c1ccc(N2CCN(Cc3c[nH]c4ccccc34)CC2)n[nH]1 |
